The target of this assay is α-glucosidase (Saccharomyces cerevisiae, UniProt P53341). Type of assay: biochemical. On the procedure: Inspection of α-glucosidase inhibition was made by using protocol mentioned in literature. 10 µl (0.057 units) of purified enzyme, 10 µl (0.5 mM) of the test compound and 70 µl (50 mM) of sodium phosphate buffer (pH = 6.8) were collected in a 96-well plate. Pre-incubation for 10 min at 37 °C was performed. Pre-reading was done at 400 nm. 10 µl (0.5 mM) of p-nitrophenyl glucopyranoside were added as a substrate. […] The collection of all data was made thrice. The formula given above allowed to calculate % of inhibition.

The structures appear in SMILES notation.

Chain of α-glucosidase (P53341 whole entry): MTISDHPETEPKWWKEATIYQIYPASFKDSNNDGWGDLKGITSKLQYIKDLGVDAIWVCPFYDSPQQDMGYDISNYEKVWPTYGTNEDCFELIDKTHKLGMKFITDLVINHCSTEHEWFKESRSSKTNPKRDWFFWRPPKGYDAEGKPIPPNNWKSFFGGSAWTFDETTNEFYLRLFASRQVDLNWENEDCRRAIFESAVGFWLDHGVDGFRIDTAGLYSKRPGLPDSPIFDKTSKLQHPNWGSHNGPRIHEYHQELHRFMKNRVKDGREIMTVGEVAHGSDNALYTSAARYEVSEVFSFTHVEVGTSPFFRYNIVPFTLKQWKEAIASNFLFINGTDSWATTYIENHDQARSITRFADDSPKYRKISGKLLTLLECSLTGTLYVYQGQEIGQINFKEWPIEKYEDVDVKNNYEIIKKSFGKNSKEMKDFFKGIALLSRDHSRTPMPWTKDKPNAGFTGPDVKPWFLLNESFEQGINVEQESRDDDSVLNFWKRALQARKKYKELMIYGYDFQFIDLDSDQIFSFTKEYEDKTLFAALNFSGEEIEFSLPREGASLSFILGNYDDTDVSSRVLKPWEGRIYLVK

Take `C[C@H]1O[C@H](O[C@H]2[C@H](O)[C@@H](O)[C@@H](O[C@H]3[C@H](O)[C@@H](O)C(O)O[C@@H]3CO)O[C@@H]2CO)[C@H](O)[C@@H](O)[C@@H]1N[C@H]1C=C(CO)[C@@H](O)[C@H](O)[C@H]1O` (stereo partly shown) [Acarbose]: the “α-Glucosidase Inhibition (%) at 0.5 Mm” value came to 65.73 ± 1.93%.

(Values after article PMC12895000, “Structural and computational supported development of 2,5-disubstituted-1,3,4-oxadiazole analogues as active LOX, urease, and α-glucosidase inhibitors” (Scientific Reports, 2026).)
